This is an account of results in patent publication US4792550A, “13-aza-14-oxo-TXA2 analogues” (Ono Pharmaceutical Co., Ltd., priority 1984, dated 1988).

Test [1] has as its system platelet aggregation induced by STA2 in human blood. Put plainly: Inhibitory activity of platelet aggregation induced by STA2 in human blood. It is filed as cell-based. To be noted: method of Born, read-out: concentrations required 50% inhibition on platelet aggregation (IC50). Here is the method:
(i) concentrations required 50% inhibition (IC50) on platelet aggregation using human blood induced by STA2 (9,11-epithio-15-hydroxy-11a-carbathromb-5Z,13E-dienoic acid), and
(i) Inhibitory activitv of platelet aggregation induced by STA2 in human blood
Whole blood of healthy human adult was collected with citric acid, and the mixture (20 ml) was centrifuged (180×g) for 10 min. The surpernatant obtained was diluted with sufficient platelet poor plasma to obtain plasma which contains 300,000 platelet cells per μl.
A solution of tested compound in ethanol (1 μl) was added to the obtained plasma (250 μl), and then a solution of STA2 in ethanol was added to the mixture. The measurement was carried out followed by the method of Born and then IC50 was calculated.

Test [2] relates to contraction of artery induced by STA2. Put plainly: Inhibitory activity on contraction of artery (increase of blood pressure) induced by STA2 in guinea pig. Type of test: in vivo. Particulars: male guinea pig, 100 μg/kg i.v., blood pressure at carotid artery; for inhibition in vivo at 0.1 mg/kg: Cavia porcellus, iv, read-out: Inhibitory ratios on contraction of artery. Here is the method:
(ii) inhibitory percentages on contraction of artery induced by STA2 in guinea pigs.
(ii) Inhibitory activity of increasing of blood pressure
A glycine-sodium hydroxide buffer solution (pH 10) of tested compound was administered intravenously to a urethaneanaesthetized male guinea pig weighing 200-350 g, at a rate of 100 μg/kg animal body weight via carotid vein.
And a solution of STA2 in phosphate buffer (pH 7.4) was administered intravenously. Change of the blood pressure was measured at carotid artery and then inhibition ratio (%) was calculated.

Like-named read-outs stand apart in the source and are kept apart here.

For the molecule `CC(C)C(O)C(=O)N[C@H]1C[C@H]2C[C@@H]([C@@H]1C/C=C\CCCC(=O)O)C2(C)C` (single isomer, unassigned) [1(kk)], the IC50 in test [1] was determined as 0.26 µM. The “Inhibitory ratios on contraction of artery” value in test [2] was determined as 18.5%. Take `CCCCCC(=O)N[C@H]1C[C@H]2C[C@@H]([C@@H]1C/C=C\CCCC(=O)O)C2(C)C` [Example 6, 9α,11α-dimethylmethano-13-aza-14-oxo-20-nor-11a-carbathromb-5Z-enoic acid]: in test [1] (Homo sapiens, Platelet), the IC50 is 0.67 µM. Besides, the inhibition in vivo at 0.1 mg/kg in test [2] is 78.1%.

For the molecule `CC1(C)[C@H]2C[C@H](NC(=O)CCCc3ccccc3)[C@@H](C/C=C\CCCC(=O)O)[C@@H]1C2` [3(c)], the IC50 in test [1] (Homo sapiens, Platelet) was 0.43 µM. In addition, the inhibition in vivo at 0.1 mg/kg in test [2] came to 78.1%. On to `CC1(C)[C@H]2C[C@H](NC(=O)CCCCc3ccccc3)[C@@H](C/C=C\CCCC(=O)O)[C@@H]1C2` [3(g)], for which the IC50 in test [1] (Homo sapiens, Platelet) stood at 0.63 µM. The inhibition in vivo at 0.1 mg/kg in test [2] was 60.5%. Take `CC(C)C(O)C(=O)N[C@H]1C[C@H]2C[C@@H]([C@@H]1C/C=C\CCCC(=O)O)C2(C)C` (single isomer, unassigned) [1(jj)]: the IC50 in test [1] (Homo sapiens, Platelet) is 0.3 µM. The “Inhibitory ratios on contraction of artery” value in test [2] worked out at 46.8%. Take `CC1(C)[C@H]2C[C@H](NC(=O)C(Cl)C3CCCC3)[C@@H](C/C=C\CCCC(=O)O)[C@@H]1C2` (some centres unmarked) [2(h)]: the IC50 in test [1] (Homo sapiens, Platelet) came to 0.45 µM. In addition, the inhibition in vivo at 0.1 mg/kg in test [2] is 57.6%.

As for `CC1(C)[C@H]2C[C@H](NC(=O)C3CCCC3)[C@@H](C/C=C\CCCC(=O)O)[C@@H]1C2` [1(o)], the IC50 in test [1] (Homo sapiens, Platelet) is 0.56 µM. Further, in test [2], the inhibition in vivo at 0.1 mg/kg stood at 34.2%. Taken in the same sequence, the figures for `CC1(C)[C@H]2C[C@H](NC(=O)CCSc3ccccc3)[C@@H](C/C=C\CCCC(=O)O)[C@@H]1C2` [1(aa)] were 0.29 µM and 66.4%. For `CC1(C)[C@H]2C[C@H](NC(=O)CC3CCCC3)[C@@H](C/C=C\CCCC(=O)O)[C@@H]1C2` [2(g)], in that order: 0.42 µM and 39%.

For the molecule `CC1(C)[C@H]2C[C@H](NC(=O)CC3Cc4ccccc4C3)[C@@H](C/C=C\CCCC(=O)O)[C@@H]1C2` [1(cc)], in test [1] (Homo sapiens, Platelet), the IC50 amounted to 0.71 µM. Consider `CC(CC(=O)N[C@H]1C[C@H]2C[C@@H]([C@@H]1C/C=C\CCCC(=O)O)C2(C)C)Cc1ccccc1` (some centres unmarked) [1(w)], for which the IC50 in test [1] (Homo sapiens, Platelet) came to 0.19 µM. Moreover, in test [2], the inhibition in vivo at 0.1 mg/kg was 60.5%. `CC(C)CCC(=O)N[C@H]1C[C@H]2C[C@@H]([C@@H]1C/C=C\CCCC(=O)O)C2(C)C` [1(hh)]: the IC50 in test [1] (Homo sapiens, Platelet) is 0.3 µM. Further, the inhibition in vivo at 0.1 mg/kg in test [2] came out at 42%.

As to `CCCCC(=O)N[C@H]1C[C@H]2C[C@@H]([C@@H]1C/C=C\CCCC(=O)O)C2(C)C` [2(j)], the IC50 in test [1] (Homo sapiens, Platelet) turned out to be 0.56 µM. Also, in test [2], the inhibition in vivo at 0.1 mg/kg came to 27.3%. As for `CC1(C)[C@H]2C[C@H](NC(=O)C(O)CCc3ccccc3)[C@@H](C/C=C\CCCC(=O)O)[C@@H]1C2` (some centres unmarked) [1(b)], the IC50 in test [1] (Homo sapiens, Platelet) was found to be 0.28 µM. The inhibition in vivo at 0.1 mg/kg in test [2] worked out at 75.2%. In the case of `CCCCCC(O)C(=O)N[C@H]1C[C@H]2C[C@@H]([C@@H]1C/C=C\CCCC(=O)O)C2(C)C` (some centres unmarked) [1(c)], the IC50 in test [1] (Homo sapiens, Platelet) is 0.32 µM. For the same molecule, the inhibition in vivo at 0.1 mg/kg in test [2] was 71.2%. For `CC(C)CC(=O)N[C@H]1C[C@H]2C[C@@H]([C@@H]1C/C=C\CCCC(=O)O)C2(C)C` [1(ee)], in that order: 0.38 µM and 39%.

`CCC(C)CC(=O)N[C@H]1C[C@H]2C[C@@H]([C@@H]1C/C=C\CCCC(=O)O)C2(C)C` (some centres unmarked) [1(dd)]: the IC50 in test [1] (Homo sapiens, Platelet) is 0.55 µM. For the same molecule, the inhibition in vivo at 0.1 mg/kg in test [2] turned out to be 37.1%. For the molecule `CC1(C)[C@H]2C[C@H](NC(=O)CCCc3cccc(Cl)c3)[C@@H](C/C=C\CCCC(=O)O)[C@@H]1C2` [1(r)], the IC50 in test [1] (Homo sapiens, Platelet) worked out at 0.67 µM. Moreover, the inhibition in vivo at 0.1 mg/kg in test [2] worked out at 58.6%.
